Assay results reported in the supplement of paper PMC10307832.

Legend:
Test in all cases: relative viability (nuclei count vs DMSO), 5 days (fraction); higher = more cells survive
IU1-47 + Trametinib = compound: CC1=CC(=C(N1C2=CC=C(C=C2)Cl)C)C(=O)CN3CCCCC3 [IU1-47] + CC(=O)Nc1cccc(-n2c(=O)n(C3CC3)c(=O)c3c(Nc4ccc(I)cc4F)n(C)c(=O)c(C)c32)c1 [Trametinib] (partner 0.02 µM)
Procedure, shortened: (§1)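 Medians of duplicate plates are given as relative viability. That measure is the nuclei count in treated wells divided by the count in vehicle wells. Counts were taken on 4× images of lung cancer cell lines in 1536-well plates, 5 days after pin-tool dosing the day after seeding with one drug alone or a fixed anchor-drug dose plus five library-drug doses (not always all listed) in √10 steps.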

FG-4592 + Pictilisib = compound: Cc1nc(C(=O)NCC(=O)O)c(O)c2ccc(Oc3ccccc3)cc12 [FG-4592] + CS(=O)(=O)N1CCN(Cc2cc3nc(-c4cccc5[nH]ncc45)nc(N4CCOCC4)c3s2)CC1 [Pictilisib] (partner 1 µM)
Procedure, shortened: as §1

FG-4592 + Olaparib = compound: Cc1nc(C(=O)NCC(=O)O)c(O)c2ccc(Oc3ccccc3)cc12 [FG-4592] + O=C(c1cc(Cc2n[nH]c(=O)c3ccccc23)ccc1F)N1CCN(C(=O)C2CC2)CC1 [Olaparib] (partner 8 µM)
Procedure, shortened: as §1

IU1-47 + Luminespib = compound: CC1=CC(=C(N1C2=CC=C(C=C2)Cl)C)C(=O)CN3CCCCC3 [IU1-47] + CCNC(=O)c1noc(-c2cc(C(C)C)c(O)cc2O)c1-c1ccc(CN2CCOCC2)cc1 [Luminespib] (partner 0.01 µM)
Procedure, shortened: as §1

| Cell Line | relative viability (IU1-47 + Trametinib; first compound 0.08 µM) | relative viability (IU1-47 + Trametinib; first compound 0.253 µM) | relative viability (IU1-47 + Trametinib; first compound 0.8 µM) | relative viability (IU1-47 + Trametinib; first compound 2.53 µM) | relative viability (IU1-47 + Trametinib; first compound 8 µM) | relative viability (FG-4592 + Pictilisib; first compound 0.08 µM) | relative viability (FG-4592 + Pictilisib; first compound 0.253 µM) | relative viability (FG-4592 + Pictilisib; first compound 0.8 µM) | relative viability (FG-4592 + Pictilisib; first compound 2.53 µM) | relative viability (FG-4592 + Pictilisib; first compound 8 µM) | relative viability (FG-4592 + Olaparib; first compound 0.08 µM) | relative viability (FG-4592 + Olaparib; first compound 0.253 µM) | relative viability (FG-4592 + Olaparib; first compound 0.8 µM) | relative viability (FG-4592 + Olaparib; first compound 2.53 µM) | relative viability (FG-4592 + Olaparib; first compound 8 µM) | relative viability (IU1-47 + Luminespib; first compound 0.08 µM) | relative viability (IU1-47 + Luminespib; first compound 0.253 µM) | relative viability (IU1-47 + Luminespib; first compound 0.8 µM) | relative viability (IU1-47 + Luminespib; first compound 2.53 µM) | relative viability (IU1-47 + Luminespib; first compound 8 µM) |
| --- | --- | --- | --- | --- | --- | --- | --- | --- | --- | --- | --- | --- | --- | --- | --- | --- | --- | --- | --- | --- |
| HCC-366 | 0.402 | 0.431 | 0.394 | 0.423 | 0.323 | 0.0934 | 0.104 | 0.23 | 0.151 | 0.113 | 0.331 | 0.353 | 0.352 | 0.435 | 0.296 | – | – | – | – | – |
| HCC-827 | 0.565 | 0.481 | 0.596 | 0.54 | 0.517 | 1.05 | 1.04 | 1.07 | 0.875 | 0.834 | 0.591 | 0.624 | 0.625 | 0.705 | 0.729 | 0.819 | 0.588 | 0.818 | 0.573 | 0.648 |
| HOP-62 | 0.4 | 0.332 | 0.387 | 0.383 | 0.348 | 0.831 | 0.55 | 0.455 | 0.651 | 0.657 | 0.373 | 0.561 | 0.496 | 0.383 | 0.338 | 0.957 | 0.964 | 1.04 | 0.925 | 1.06 |
| IA-LM | – | – | – | – | – | 0.358 | 0.291 | 0.308 | 0.295 | 0.201 | 0.712 | 0.623 | 0.663 | 0.81 | 0.727 | – | – | – | – | – |
| LC-2-ad | 0.951 | 1.02 | 0.954 | – | 0.884 | 0.487 | 0.372 | 0.456 | 0.414 | 0.374 | 0.683 | 0.694 | 0.725 | 0.755 | 0.782 | 1.23 | 1.04 | 0.883 | 0.766 | 1.15 |
| LCLC-97TM1 | 0.201 | 0.188 | 0.198 | – | 0.179 | 0.22 | 0.192 | 0.138 | – | 0.169 | 0.444 | 0.417 | – | 0.329 | 0.421 | 0.846 | 0.757 | 0.834 | 0.716 | 0.787 |
| LCLC-103H | 0.71 | 0.817 | 0.701 | 0.647 | 0.7 | 0.5 | 0.512 | 0.509 | 0.714 | 0.654 | 0.746 | 0.751 | 0.695 | 0.708 | 0.751 | 1.11 | 0.982 | 1.03 | 0.818 | 0.989 |
| LK-2 | 0.932 | 0.834 | 0.772 | 0.545 | 0.831 | – | 0.638 | – | 0.64 | 0.475 | 0.556 | 0.787 | 0.613 | 0.701 | 0.662 | 0.235 | 0.165 | 0.175 | 0.213 | 0.17 |
| LOU-NH91 | 0.904 | 0.845 | 0.844 | 0.795 | 0.749 | 0.456 | 0.51 | 0.509 | 0.545 | 0.554 | 0.93 | 0.85 | 0.902 | 0.959 | 0.953 | 0.326 | 0.299 | 0.294 | 0.276 | 0.336 |
